# Laboratory results reported in publication PMC8759731, “Design, synthesis, and evaluation of novel coumarin-dithiocarbamate derivatives (IDs) as anti-colorectal cancer agents” (Journal of Enzyme Inhibition and Medicinal Chemistry, 2021).
# Key:
# SW620 cells = test: MTS cell viability assay, SW620 cells; assay type: cell-based; settings: Homo sapiens, SW-620, 10 μM, 72 h
# Text: (§1) Human colorectal cancer cell lines including RKO, SW620 and SW480 were purchased from Chinese Academy of Sciences, a typical cell library culture preservation committee (Shanghai, China). Normal human colon epithelial cell line NCM460 was purchased from ATCC (Washington, DC, USA). RPMI-1640 medium (12633020), foetal bovine serum (FBS, 26170043), penicillin-streptomycin (10378016) and phosphate buffered saline (PBS, 70011044) were purchased from Gibco (Eggenstein, Germany). 5-Fluorouracil (5-FU, E0201010050, purity ≥98%) was purchased from Energy Chemical (Shanghai, China). Dimethyl sulfoxide (DMSO, 41639) was obtained from Sigma-Aldrich (St. Louis, MO). 3–(4,5-dimethylthiazol-2-yl)-5–(3-carboxymethoxyphenyl)-2–(4-sulfophenyl)-2H-tetrazolium (MTS, G1111) was purchased from Promega (Madison, WI, USA). All cell lines were cultured in RPMI-1640 medium supplemented with 10% FBS, penicillin (100 units/mL) and streptomycin ([…]) at 37 °C in a humidified atmosphere containing 5% CO2.
# (§2) Cell viability was measured via MTS assay. RKO, SW620, SW480 and NCM460 cells were seeded in 96-well plates at a density of 5000 cells per well for 24 h. After treatment with the test compounds at indicated concentration for another 48 h or 72 h at 37 °C, MTS solution was added to each well and incubated for another 30 min at 37 °C. Then, the absorbance at 490 nm was measured by a BioTek Synergy H4 microplate Reader (Vermont, USA). The IC50 values were calculated with Graphpad 7.0 software packages.
# RKO cells = test: MTS cell viability assay, RKO cells; assay type: cell-based; settings: Homo sapiens, 10 μM, 72 h
# Text: as §1, §2
# SW480 cells = test: MTS cell viability assay, SW480 cells; assay type: cell-based; settings: Homo sapiens, 10 μM, 72 h
# Text: as §1, §2
# [1] = MTS cell viability assay, NCM460 normal colon epithelial cells; assay type: cell-based, human; settings: human, NCM460 normal colon epithelial cells, 10 μM
# Text: as §1, §2
# BRD4 (BD1) = target: T1, BRD4 (BD1) (Homo sapiens, UniProt O60885); test: HTRF assay BRD4 (BD1); assay type: binding; settings: 10 μM, read-out: Inhibitory rate at 10 μM, BRD4 (BD1)
# T1 construct: purchased Reaction Biology Corp. RD-11-157
# Protocol: (§3) In brief, compounds were serially diluted in Echo plate according to the plate map and DMSO’s final fraction is 0.1%. Then, transferring compounds and DMSO to 384-well assay plate by Echo. After that, 2× Protein and Peptide Mix was added to the assay plate and 2× Detection Mix was then added to assay plate and shook for 30 s. After incubating the plate at room temperature for 1.5 h, the HTRF signals (Excitation wavelength at 340 nm, Emission wavelength at 615 & 665 nm) was read on EnVision (PerkinElmer, UK). (+)-JQ1 (BPS Bioscience, Cat. No. 27402) was used as a positive control. BRD4-1 (RD-11–157) and BRD4-2 (RD-11–158) were purchased from Reaction Biology Corp. (PENN, USA). For Curve fitting, the inhibition values was calculated in Excel using Equation (1): Inhibition %=(Max-Signal)/(Max-Min)*100, and the IC50 values was calculated in XL-Fit using Equation (2): Y = Bottom + (Top-Bottom)/(1+(IC50/X)[…]), Y is %inhibition and X is compound concentration.
# BRD4 (BD2) = target: T2, BRD4 (BD2) (Homo sapiens, UniProt O60885); test: HTRF assay BRD4 (BD2); assay type: binding; settings: read-out: Inhibitory rate at 10 μM, BRD4 (BD2)
# T2 construct: purchased Reaction Biology Corp. RD-11-158
# Protocol: as §3
smiles,measurement,setting,value
"O=c1[nH]cc(F)c(=O)[nH]1 [5-FU, 5-Fluorouracil, reference compound]",viability at 10 µM,SW620 cells,33.6%
same,viability at 10 µM,RKO cells,40.7%
same,viability at 10 µM,SW480 cells,43.9%
same,"viability at 48 h, 10 µM",[1],80.4%
"CN(C)C(=S)SCc1ccc2oc(=O)ccc2c1 [ID-1, (2-Oxo-2H-chromen-6-yl)methyl dimethylcarbamodithioate]",inhibition at 10 µM,BRD4 (BD1),2.2%
same,melting point,,151.6 to 152.5 °C
same,inhibition at 10 µM,BRD4 (BD2),1.5%
"CCN(CC)C(=S)SCc1ccc2oc(=O)ccc2c1 [ID-2, (2-Oxo-2H-chromen-6-yl)methyl diethylcarbamodithioate]",inhibition at 10 µM,BRD4 (BD1),4.3%
same,melting point,,100.1 to 101 °C
same,inhibition at 10 µM,BRD4 (BD2),5.1%
"CCCN(CCC)C(=S)SCc1ccc2oc(=O)ccc2c1 [ID-3, (2-Oxo-2H-chromen-6-yl)methyl dipropylcarbamodithioate]",inhibition at 10 µM,BRD4 (BD1),1.6%
same,melting point,,52.3 to 53.2 °C
same,inhibition at 10 µM,BRD4 (BD2),3.3%
"CCCCN(CCCC)C(=S)SCc1ccc2oc(=O)ccc2c1 [ID-4, (2-Oxo-2H-chromen-6-yl)methyl dibutylcarbamodithioate]",inhibition at 10 µM,BRD4 (BD1),4.2%
same,inhibition at 10 µM,BRD4 (BD2),3.1%
"O=c1ccc2cc(CSC(=S)N3CCC3)ccc2o1 [ID-5, (2-Oxo-2H-chromen-6-yl)methyl azetidine-1-carbodithioate]",inhibition at 10 µM,BRD4 (BD1),6.2%
same,melting point,,144 to 145 °C
same,inhibition at 10 µM,BRD4 (BD2),5.8%
"O=c1ccc2cc(CSC(=S)N3CC(O)C3)ccc2o1 [ID-6, (2-Oxo-2H-chromen-6-yl)methyl 3-hydroxyazetidine-1-carbodithioate]",inhibition at 10 µM,BRD4 (BD1),15%
same,melting point,,137.8 to 138.7 °C
same,inhibition at 10 µM,BRD4 (BD2),8.7%
"O=c1ccc2cc(CSC(=S)N3CCCC3)ccc2o1 [ID-7, (2-Oxo-2H-chromen-6-yl)methyl pyrrolidine-1-carbodithioate]",inhibition at 10 µM,BRD4 (BD1),9.2%
same,melting point,,110.2 to 111.1 °C
same,inhibition at 10 µM,BRD4 (BD2),7.1%
"O=c1ccc2cc(CSC(=S)N3CCCCC3)ccc2o1 [ID-8, (2-Oxo-2H-chromen-6-yl)methyl piperidine-1-carbodithioate]",inhibition at 10 µM,BRD4 (BD1),7.8%
same,melting point,,130.1 to 131 °C
same,inhibition at 10 µM,BRD4 (BD2),8.2%
"O=c1ccc2cc(CSC(=S)N3CCCCCC3)ccc2o1 [ID-9, (2-Oxo-2H-chromen-6-yl)methyl azepane-1-carbodithioate]",inhibition at 10 µM,BRD4 (BD1),6.3%
same,melting point,,72.6 to 73.5 °C
same,inhibition at 10 µM,BRD4 (BD2),5%
"O=c1ccc2cc(CSC(=S)N3CCOCC3)ccc2o1 [ID-10, (2-Oxo-2H-chromen-6-yl)methyl morpholine-4-carbodithioate]",inhibition at 10 µM,BRD4 (BD1),27.2%
same,melting point,,135.4 to 136.3 °C
same,inhibition at 10 µM,BRD4 (BD2),19.6%
"CN1CCN(C(=S)SCc2ccc3oc(=O)ccc3c2)CC1 [ID-12, (2-Oxo-2H-chromen-6-yl)methyl 4-methylpiperazine-1-carbodithioate]",inhibition at 10 µM,BRD4 (BD1),35.5%
same,melting point,,124.3 to 125.2 °C
same,inhibition at 10 µM,BRD4 (BD2),26.5%
"CC(C)N1CCN(C(=S)SCc2ccc3oc(=O)ccc3c2)CC1 [ID-13, (2-Oxo-2H-chromen-6-yl)methyl 4-isopropylpiperazine-1-carbodithioate]",inhibition at 10 µM,BRD4 (BD1),14.4%
same,melting point,,73.6 to 74.5 °C
same,inhibition at 10 µM,BRD4 (BD2),10.8%
"CC(C)(C)N1CCN(C(=S)SCc2ccc3oc(=O)ccc3c2)CC1 [ID-14, (2-Oxo-2H-chromen-6-yl)methyl 4-(tert-butyl)piperazine-1-carbodithioate]",inhibition at 10 µM,BRD4 (BD1),12.8%
same,melting point,,159.4 to 160.3 °C
same,inhibition at 10 µM,BRD4 (BD2),16.6%
"O=c1ccc2cc(CSC(=S)N3CCN(CCO)CC3)ccc2o1 [ID-15, (2-Oxo-2H-chromen-6-yl)methyl 4–(2-hydroxyethyl)piperazine-1-carbodithioate]",inhibition at 10 µM,BRD4 (BD1),40.2%
same,melting point,,120.9 to 121.8 °C
same,inhibition at 10 µM,BRD4 (BD2),33.3%
"O=c1ccc2cc(CSC(=S)N3CCN(C4CCCCC4)CC3)ccc2o1 [ID-16, (2-Oxo-2H-chromen-6-yl)methyl 4-cyclohexylpiperazine-1-carbodithioate]",inhibition at 10 µM,BRD4 (BD1),20.1%
same,melting point,,106.9 to 107.8 °C
same,inhibition at 10 µM,BRD4 (BD2),12.9%
"O=c1ccc2cc(CSC(=S)N3CCN(c4ccc(O)cc4)CC3)ccc2o1 [ID-17, (2-Oxo-2H-chromen-6-yl)methyl 4–(4-hydroxyphenyl)piperazine-1-carbodithioate]",inhibition at 10 µM,BRD4 (BD1),39%
same,melting point,,195.5 to 196.4 °C
same,inhibition at 10 µM,BRD4 (BD2),27.7%
"N#Cc1ccc(N2CCN(C(=S)SCc3ccc4oc(=O)ccc4c3)CC2)cc1 [ID-18, (2-Oxo-2H-chromen-6-yl)methyl 4–(4-cyanophenyl)piperazine-1-carbodithioate]",inhibition at 10 µM,BRD4 (BD1),11.8%
same,melting point,,181.5 to 182.4 °C
same,inhibition at 10 µM,BRD4 (BD2),8.4%
"O=c1ccc2cc(CSC(=S)N3CCC(c4ccccc4)CC3)ccc2o1 [ID-19, (2-Oxo-2H-chromen-6-yl)methyl 4-phenylpiperidine-1-carbodithioate]",inhibition at 10 µM,BRD4 (BD1),6.5%
same,melting point,,115.6 to 116.5 °C
same,inhibition at 10 µM,BRD4 (BD2),3.2%
"CN1CCN(C2CCN(C(=S)SCc3ccc4oc(=O)ccc4c3)CC2)CC1 [ID-20, (2-Oxo-2H-chromen-6-yl)methyl 4–(4-methylpiperazin-1-yl)piperidine-1-carbodithioate]",inhibition at 10 µM,BRD4 (BD1),36.6%
same,melting point,,95 to 96 °C
same,inhibition at 10 µM,BRD4 (BD2),29.3%
